Test results: patent US7410974B2, “Halogenated Quinazolinyl nitrofurans as antibacterial agents” (Ulysses Pharmaceutical Products, Inc., priority 2003, dated 2008)
≈ marks a conversion by molar mass, not a printed value. Where two headings read alike, the source gives them in different places.

Experiments:
E. faecalis ATCC 29212 = assay: MIC broth microdilution (NCCLS); assay type: cell-based, Enterococcus faecalis
Experimental: (§1) Minimal Inhibitory Concentration (MIC) Determination. Bacteria (primary strain panel, TABLE 1). Susceptibility tests were performed following the recommendations from the National Committee for Clinical Standards (NCCLS). The MICs were determined by a broth microdilution technique using a final volume of 100 μl of cation-adjusted Mueller Hinton Broth (MHBCA) and a bacterial inoculum of 10^5-10^6 Colony Forming Units (CFU)/ml. The inocula were verified and precisely determined by applying 10-μl drops of 10-fold dilutions onto Triptic Soy Agar plates. The CFU were counted after an incubation of 24 h at 35° C. Any experiment showing an inoculum that was more or less than 10^5-10^6 CFU/ml was rejected. Control antibiotics and test compounds were prepared at a concentration equivalent to 2-fold the highest desired final concentration. Compounds were then diluted directly in the 96-well microtiter plates by serial 2-fold dilutions using a multichannel pipette. Microtiter plates were incubated during 24 h at 35° C. and growth was recorded by using a microtiterplate reader at 650 nm as well as by visual observation. The MIC was defined as the lowest concentration of compound yielding no visible growth. […] Fastidious bacteria. The medium used for Listeria monocytogenes, Neisseria meningitidis, and Campylobacter jejuni was MHBCA containing 2% laked horse blood. The medium used for Haemophilus influenzae and Branhamella (Moraxella) catarrhalis was HTM as recommended by the NCCLS. Cultures of these fastidious bacteria were incubated at 35° C. in a 5% CO2 atmosphere. […] The medium used for Bacteroides fragilis was Wilkins Chalgren broth and growth was allowed under an anaerobic atmosphere at 35° C. for 48 hours.

[1] = tested on: S. saprophyticus ATCC 15305; assay: MIC broth microdilution (NCCLS); assay type: cell-based, Staphylococcus saprophyticus
Experimental: as §1

[2] = tested on: Y. enterocolytica ATCC 23715; assay: MIC broth microdilution (NCCLS); assay type: cell-based, Yersinia enterocolytica
Experimental: as §1

MRSA strain Sa253c = assay: MIC broth microdilution, antibiotic resistant strain panel; assay type: cell-based, Staphylococcus aureus; details: multi-resistant MRSA strain Sa253c
Experimental: as §1
(§2) Finally, compounds were also tested against populations of various clinical strains (antibiotic resistant strain panel, TABLE 1).

MRSA strain Sa228c = assay: as above; assay type: cell-based, Staphylococcus aureus; details: multi-resistant MRSA strain Sa228c
Experimental: as §1, §2

MRSA strain Sa224c = assay: as above; assay type: cell-based, Staphylococcus aureus; details: multi-resistant MRSA strain Sa224c
Experimental: as §1, §2

MRSA strain Sa211c = assay: as above; assay type: cell-based, Staphylococcus aureus; details: multi-resistant MRSA strain Sa211c
Experimental: as §1, §2

MRSA strain Sa220c = assay: as above; assay type: cell-based, Staphylococcus aureus; details: multi-resistant MRSA strain Sa220c
Experimental: as §1, §2

MRSA strain Sa249c = assay: as above; assay type: cell-based, Staphylococcus aureus; details: multi-resistant MRSA strain Sa249c
Experimental: as §1, §2

MRSA strain Sa212c = assay: as above; assay type: cell-based, Staphylococcus aureus; details: multi-resistant MRSA strain Sa212c
Experimental: as §1, §2

MRSA strain Sa234c = assay: as above; assay type: cell-based, Staphylococcus aureus; details: multi-resistant MRSA strain Sa234c
Experimental: as §1, §2

MRSA strain Sa248c = assay: as above; assay type: cell-based, Staphylococcus aureus; details: multi-resistant MRSA strain Sa248c
Experimental: as §1, §2

[3] = tested on: S. epidermidis ATCC 12228; assay: MIC broth microdilution (NCCLS); assay type: cell-based, Staphylococcus epidermidis
Experimental: as §1

A. baumannii ATCC 19606 = assay: MIC broth microdilution (NCCLS); assay type: cell-based, Acinetobacter baumannii
Experimental: as §1

S. aureus ATCC 29213 = assay: MIC broth microdilution (NCCLS); assay type: cell-based, Staphylococcus aureus
Experimental: as §1

E. faecium ATCC 35667 = assay: MIC broth microdilution (NCCLS); assay type: cell-based, Enterococcus faecium
Experimental: as §1

S. aureus MRSA COL = assay: MIC broth microdilution (NCCLS); assay type: cell-based, Staphylococcus aureus
Experimental: as §1, with “hours. […]” for “hours.”

E. coli ATCC 25922 = assay: MIC broth microdilution (NCCLS); assay type: cell-based, Escherichia coli
Experimental: as §1

S. typhimurium ATCC14028 = assay: MIC broth microdilution (NCCLS); assay type: cell-based, Salmonella typhimurium; details: Salmonella enterica; S. typhimurium ATCC14028; read-out: MIC
Experimental: as §1

M. smegmatis ATCC 19420 = assay: MIC broth microdilution (NCCLS), fastidious bacteria; assay type: cell-based, Mycobacterium smegmatis; details: Mycolicibacterium smegmatis, ATCC19420, read after 48 hours
Experimental: as §1

E. faecium VanA = assay: MIC broth microdilution, antibiotic resistant strain panel; assay type: cell-based; details: Enterococcus faecium
Experimental: as §1, §2

[4] = tested on: S. saprophyticus ATCC 15305; assay: Minimal Bactericidal Concentration (MBC); assay type: cell-based; details: Staphylococcus saprophyticus, ATCC15305
Experimental: (§3) Minimal Bactericidal Concentration (MBC). After the microtiter plates were read for the determination of the MIC, a 10-μl sample of each clear well (at least 5 wells without visible growth) was applied onto TSA plates for viable counts determination.
(§4) Petri dishes were incubated at 35° C. for exactly 24 h and bacterial colonies were counted.

B. catarrhalis ATCC 8176 [5] = assay: Minimal Bactericidal Concentration (MBC); assay type: cell-based, Branhamella (Moraxella) catarrhalis; details: Moraxella catarrhalis, ATCC8176, 99.9% killing
Experimental: as §3, §4

H. influenzae ATCC 49247 [6] = assay: Minimal Bactericidal Concentration (MBC); assay type: cell-based; details: Haemophilus influenzae, ATCC49247, 99.9% killing
Experimental: as §3, §4

H. influenzae ATCC 49766 [7] = assay: Minimal Bactericidal Concentration (MBC); assay type: cell-based; details: Haemophilus influenzae, ATCC49766, 99.9% killing
Experimental: as §3, §4

B. catarrhalis ATCC 8176 [8] = assay: MIC broth microdilution (NCCLS), fastidious bacteria; assay type: cell-based, Branhamella (Moraxella) catarrhalis; details: Moraxella catarrhalis, ATCC8176, HTM, 5% CO2
Experimental: as §1

H. influenzae ATCC 49247 [9] = assay: as above; assay type: cell-based; details: Haemophilus influenzae, ATCC49247, HTM, 5% CO2
Experimental: as §1

H. influenzae ATCC 49766 [10] = assay: as above; assay type: cell-based; details: Haemophilus influenzae, ATCC49766, HTM, 5% CO2
Experimental: as §1

[11] = Enterococcus faecalis, ATCC29212, E. faecalis ATCC 29212, read-out: MIC
[12] = Staphylococcus saprophyticus, ATCC15305, S. saprophyticus ATCC 15305, read-out: MIC
[13] = Yersinia, ATCC23715, read-out: MIC
[14] = Staphylococcus epidermidis, ATCC12228, S. epidermidis ATCC 12228, read-out: MIC
[15] = Acinetobacter baumannii, ATCC19606, read-out: MIC
[16] = Staphylococcus aureus, ATCC29213, S. aureus ATCC 29213, read-out: MIC
[17] = Enterococcus faecium, ATCC35667, E. faecium ATCC 35667, read-out: MIC
[18] = Staphylococcus aureus, MRSA, S. aureus MRSA COL, read-out: MIC
[19] = Escherichia coli, ATCC25922, E. coli ATCC 25922 (Reference), read-out: MIC

Compound Gentamicin has an MIC (E. faecalis ATCC 29212; E. faecalis ATCC 29212) of 4 to 16 µg/mL, an MIC ([1]; S. saprophyticus ATCC 15305) of 0.06 µg/mL and an MIC [2] of 2 µg/mL. The MIC (MRSA strain Sa253c) was >128 µg/mL, the MIC (MRSA strain Sa228c) was 32 µg/mL and the MIC (MRSA strain Sa224c) was 0.25 µg/mL. The MIC (MRSA strain Sa211c) was 1 µg/mL, the MIC (MRSA strain Sa220c) was 0.5 µg/mL and the MIC (MRSA strain Sa249c) was >128 µg/mL. The MIC (MRSA strain Sa212c) was 0.25 µg/mL, the MIC (MRSA strain Sa234c) was 1 µg/mL and the MIC (MRSA strain Sa248c) was >128 µg/mL. It also gave an MIC ([3]; S. epidermidis ATCC 12228) of 0.06 to 0.25 µg/mL, an MIC (A. baumannii ATCC 19606) of 32 µg/mL and an MIC (S. aureus ATCC 29213; S. aureus ATCC 29213) of 0.5 to 2 µg/mL. It also gave an MIC (E. faecium ATCC 35667; E. faecium ATCC 35667) of 4 to 16 µg/mL, an MIC (S. aureus MRSA COL; S. aureus MRSA COL) of 0.5 µg/mL and an MIC (E. coli ATCC 25922; E. coli ATCC 25922 (Reference)) of 0.5 to 2 µg/mL.

Compound `NC(=O)N/N=C/c1ccc([N+](=O)[O-])o1` [Nitrofurazone] has an MIC (E. faecalis ATCC 29212; [11]) of 64 µg/mL (≈ 323 µM), an MIC [1, 12] of 8 µg/mL (≈ 40.4 µM) and an MIC (S. typhimurium ATCC14028) of 8 µg/mL (≈ 40.4 µM). The MIC [2, 13] was 64 µg/mL (≈ 323 µM), the MIC [3, 14] was 8 µg/mL (≈ 40.4 µM) and the MIC (A. baumannii ATCC 19606; [15]) was 32 µg/mL (≈ 162 µM). For the same compound, the MIC (S. aureus ATCC 29213; [16]) was 16 µg/mL (≈ 80.8 µM), the MIC (M. smegmatis ATCC 19420) was 64 µg/mL (≈ 323 µM) and the MIC (E. faecium ATCC 35667; E. faecium ATCC 35667) was >64 µg/mL. The MIC (E. faecium ATCC 35667; [17]) was 128 µg/mL (≈ 646 µM), the MIC (S. aureus MRSA COL; [18]) was 8 to 16 µg/mL (≈ 40.4 to 80.8 µM) and the MIC (E. coli ATCC 25922; [19]) was 8 to 16 µg/mL (≈ 40.4 to 80.8 µM). It also gave an MIC (E. faecium VanA; multi-resistant E. faecium VanA, read-out: MIC) of 64 µg/mL (≈ 323 µM).

With `CN[C@H](CC(C)C)C(=O)N[C@H]1C(=O)N[C@@H](CC(N)=O)C(=O)N[C@H]2C(=O)N[C@H]3C(=O)N[C@H](C(=O)N[C@H](C(=O)O)c4cc(O)cc(O)c4-c4cc3ccc4O)[C@H](O)c3ccc(c(Cl)c3)Oc3cc2cc(c3O[C@@H]2O[C@H](CO)[C@@H](O)[C@H](O)[C@H]2O[C@H]2C[C@](C)(N)[C@H](O)[C@H](C)O2)Oc2ccc(cc2Cl)[C@H]1O` [Vancomycin] the MIC (E. faecalis ATCC 29212; Enterococcus faecalis, ATCC29212) was 2 µg/mL (≈ 1.38 µM), the MIC ([1]; Staphylococcus saprophyticus, ATCC15305) was 1 µg/mL (≈ 0.69 µM) and the MIC ([3]; Staphylococcus epidermidis, ATCC12228) was 1 to 2 µg/mL (≈ 0.69 to 1.38 µM). The MIC (S. aureus ATCC 29213; Staphylococcus aureus, ATCC29213) was 0.5 to 2 µg/mL (≈ 0.345 to 1.38 µM), the MBC [4] was 1 µg/mL (≈ 0.69 µM) and the MIC (E. faecium ATCC 35667; Enterococcus faecium, ATCC35667) was 0.5 µg/mL (≈ 0.345 µM). For the same compound, the MIC (S. aureus MRSA COL; Staphylococcus aureus, MRSA) was 1 to 2 µg/mL (≈ 0.69 to 1.38 µM) and the MIC (E. faecium VanA) was > 128 µg/mL.

In the case of `C[C@@H](O)[C@H]1C(=O)N2C(C(=O)O)=C(S[C@@H]3CN[C@H](C(=O)N(C)C)C3)[C@H](C)[C@H]12` [Meropenem], the MIC (E. faecalis ATCC 29212; [11]) is reported as 2 to 4 µg/mL (≈ 5.22 to 10.4 µM), the MIC [1, 12] is reported as 0.25 µg/mL (≈ 0.652 µM) and the MIC [2, 13] is reported as > 0.5 µg/mL. It also gave an MIC [3, 14] of 0.06 µg/mL (≈ 0.156 µM), an MIC (A. baumannii ATCC 19606; [15]) of 2 µg/mL (≈ 5.22 µM) and an MIC (S. aureus ATCC 29213; [16]) of 0.06 µg/mL (≈ 0.156 µM). The MBC (B. catarrhalis ATCC 8176 [5]) was 8 ng/mL (≈ 0.0209 µM), the MBC (H. influenzae ATCC 49247 [6]) was 0.06 µg/mL (≈ 0.156 µM) and the MBC (H. influenzae ATCC 49766 [7]) was 0.06 µg/mL (≈ 0.156 µM). The MIC (B. catarrhalis ATCC 8176 [8]) was 2 ng/mL (≈ 0.00522 µM), the MIC (E. faecium ATCC 35667; [17]) was 16 µg/mL (≈ 41.7 µM) and the MIC (S. aureus MRSA COL; [18]) was 16 µg/mL (≈ 41.7 µM). For the same compound, the MIC (H. influenzae ATCC 49247 [9]) was 0.06 µg/mL (≈ 0.156 µM), the MIC (H. influenzae ATCC 49766 [10]) was 0.03 µg/mL (≈ 0.0782 µM) and the MIC (E. coli ATCC 25922; [19]) was 0.015 to 0.06 µg/mL (≈ 0.0391 to 0.156 µM).
